Entries after “also recorded” stand apart in the source; their conditions may differ.
T1: GSDMD pores (Homo sapiens, UniProt P57764)
T1 construct: His-SUMO (N, cleaved yes); made in house; host or cells: E. coli BL21
T1 sequence (P57764 1-275 limits assumed): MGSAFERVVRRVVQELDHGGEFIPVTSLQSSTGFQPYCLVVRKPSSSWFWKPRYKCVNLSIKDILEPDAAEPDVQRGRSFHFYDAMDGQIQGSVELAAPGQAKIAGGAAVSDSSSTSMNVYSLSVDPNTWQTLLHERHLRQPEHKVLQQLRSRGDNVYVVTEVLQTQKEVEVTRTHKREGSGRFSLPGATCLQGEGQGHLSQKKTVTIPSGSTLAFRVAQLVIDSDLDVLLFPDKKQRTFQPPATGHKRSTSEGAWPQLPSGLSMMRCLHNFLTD


Columns and labels:
GSDMD pores = biological target: T1, GSDMD pores; experiment: Free-standing planar lipid bilayer electrophysiology of reconstituted GSDMD pores; type: biochemical; conditions: for time to observe GSDMD protein-membrane interaction, in words: lipid in bilayer compared to baseline or PIP2 bilayer; for single pore activity / pore dynamics profile: lipid in POPE/POPC bilayer
Description: Protein Purification. Plasmid encoding the full length human GSDMD with a N-terminal His-SUMO tag was transformed into E. coli BL21 strain. The cultures were grown at 37° C. until OD600 0.8, and protein expression was induced with 0.2 mM isopropyl β-D-1-thiogalactopyranoside (IPTG) overnight at 20° C. The cells were harvested by centrifugation and the pellet was resuspended in 20 mM Tris buffer, pH 7.5, 50 mM NaCl, 5 mM imidazole, 20 mM MgCl2, 10 mM KCl, 0.5 mM TCEP, 0.1 mM protease inhibitor, and DNase I. After resuspension, cells were disrupted by high-pressure and centrifuged at 30,000 g at 4° C. for 1 hour. The supernatant was incubated for 2 hours at room temperature with pre-equilibrated Ni-NTA affinity resin (Thermo Scientific) and then passed through a column for gravity flow purification. The column was washed with 20 column volumes of resuspension buffer, and the fusion protein was eluted with three column volumes of the same buffer with 250 mM imidazole. SUMO-tag cleavage was achieved by addition of ULP1 protease to the solution and subsequent dialysis overnight at 4° C. against 20 mM Tris buffer, pH 7.5, 50 mM NaCl, 0.5 mM TCEP. GSDMD was eluted from a second round of purification through pre-equilibrated Ni-NTA affinity resin. The protein was further purified by HI-TRAP® Q ion-exchange resin and a SUPERDEX® 75 gel filtration column (GE Healthcare) pre-equilibrated with 20 mM Tris buffer, pH 7.5, 50 mM NaCl, 0.5 mM TCEP. The purified protein was concentrated to 20 mg/ml and frozen at −80° C.
Free-Standing Lipid Bilayer Formation and Electrophysiology. For the lipid bilayer, a bilayer chamber with a polystyrene cuvette was used. In addition, the folding method, which is based on Langmuir-Blodgett film formation (Kroemer et al. (2009) Cell Death Differ. 16:3-11; Weavers et al. (2016) Cell 165:1658-1671) was employed. Monolayers that were spread in the air-water interface were faced at the chamber hole (Bergsbaken & Fink (2009) Nat. Rev. Microbiol. 7:99-109; Mulvihill et al. (2018) EMBO J. 37 (14): e98321). In brief, a shallow trough made of polystyrene was filled with recording solution, and the surface was separated into two parts by one of the cuvette walls. Bilayers were formed by monolayers of 1:3 1-palmitoyl-2-oleoylphosphatidylethanolamine (POPE)/1-palmitoyl-2-oleoylphosphatidylcholine (POPC) (Avanti-lipids) in pentane; where appropriate, phosphoinositides of the indicated headgroup were introduced with di-oleoyl (18:1) fatty acid chains at 10% relative concentration. A small amount of phospholipid, dispersed in pentane solution, was dropped on one of the water surfaces and as pentane evaporated, the lipid molecules remained at the air-water interface. The movements of the lipid molecules became less vigorous, and eventually the lipid molecules packed together to form a monolayer. For the formation of the planar lipid bilayer by the folding method, a monolayer was formed at the air-water interface in each compartment. Upon raising the recording solution level by adding more solution, the monolayer ran up on the cuvette surface and passed through the hole, where the two monolayers from both sides encountered each other and formed a bilayer. The membrane formed by this method has been referred to as a “solvent-free” membrane. The advantage of this method over other methods, like the painting method, is the capacity to form an asymmetrical membrane in which the lipid composition of either leaflet is arbitrarily defined (Kayagaki et al. (2015) Nature 526: 666-671). Once formed, the membrane retains this asymmetry for a long time because the flip-flop or exchange of the lipid molecules between both leaflets of the membrane is very slow.
For incorporation of the GSDMD into the lipid bilayer, 2 μM of the purified GSDMD protein was added to the cis side chamber along with 2 μM of caspase 1. The specific membrane capacitance of the membrane formed by the folding method was 0.6-0.8 μF/cm^2. […]

Hela cells = experiment: Optogenetic activation of PhoDer, membrane-targeted jRCaMP1b calcium flare imaging and fluctuation analysis; type: cell-based; conditions: PhoDer mutants in live Hela cells vs PhoDer
Description: Cloning. Cloning and subcloning were performed using the DH5a strain of E. coli. All mammalian constructs were cloned into the pcDNA3.0 vector with a modified multiple cloning site. Plasmids were generated as follows. Gasdermin D gene was obtained from Addgene. A diffusible optogenetic GSDMD, referred to herein as “PhoDer” and set forth in SEQ ID NO: 33, was constructed according to the reported domains structure by ligating three fragments into the pcDNA3.0 vector in one reaction via Gibson Assembly (New England BioLabs). For each fragment, PCR was specifically designed to create appropriate complementation. The jRCaMP1b gene, encoding a sensitive red protein calcium indicator, was obtained from Addgene. Membrane targeted calcium indicator jRCaMP1b was constructed by ligating a PCR fragment of the calcium indicator into the restriction enzyme sites BamHI and EcoRI in a modified pcDNA3.0 vector carrying a 5′ fragment encoding the N-terminal Lyn kinase localization sequence.
Cell Culture. HeLa and RAW264.7 cells were maintained in Dulbecco's Modified Eagle Medium (DMEM) medium supplemented with 10% fetal bovine serum (FBS) and 1% penicillin and streptomycin. Cells were transfected at 50%-70% confluency using LIPOFECTAMINE® 2000 transfection reagent and incubated for 24 hours before imaging. Cells were never serum-starved. To examine endogenous inflammatory activation, RAW264.7 cells were treated with 100 ng/μL lipopolysaccharide (LPS, Invivogen) at the beginning of each experiment. Pretreatment to bias membrane composition by phosphatidylinositol 4,5-bisphosphate (PIP2) modifying enzymes was performed by incubating Hela cells in Hanks' Balanced Salt Solution (HBSS) buffer with inhibitors at 37° C. for 10 minutes to prior imaging at the following concentrations: for phosphoinositide 3-kinase (PI3K), cells were treated 10 μM wortmannin (Tocris); and for phospholipase C (PLC), cells were treated with 10 μM U73122 (Tocris). Cells were removed from the incubator and allowed to come to thermal equilibrium before being imaged in HBSS buffer at room temperature.
Fluorescence Imaging, Optogenetic Activation, and Post-Processing. All epifluorescence imaging was performed on a customized Nikon Ti2-E microscope equipped with individual control over excitation (EX) and emission (EM) filters, a fast LED light source (Lumencor) with fluid-cooled EMCCD (Andor), motorized stage, and examined under a 40× or 100× oil immersion objective under live focus tracking. For RFP, excitation (EX) and emission (EM) filter combinations (maxima/bandwidth in nm) are indicated. Cells were imaged at 12-15 second intervals. Emission intensities of individual cells were background-subtracted before normalization to zero time point, when optogenetic activation began. In the optical setup, optogenetic activation of PhoDer was performed using an EX filter at 440/20 nm for 20-30 ms across whole fields of view. This replicated the progression of endogenous activation of GSDMD observed in LPS-stimulated RAW264.7 cells. […] Where applicable, inhibitors were treated at the indicated concentration for 15 minutes prior to imaging.
Fluctuation Analysis and Quantification. To automate the objective isolation and quantitation of calcium flares, a post-processing algorithm was developed based on principles and normalization scheme detailed in work on photochromic stochastic optical fluctuation imaging (pcSOFI) (Dedecker et al. (2012) Proc. Natl. Acad. Sci. USA 109: 10909-10914). Briefly, fluctuation caused by the flares generate high autocorrelation signals in time-averaged series and yield high contrast at locales of the greatest ion flux. To truly reflect the local flux change, it is then normalized to remove dependence on the number of biosensors reporting at the given location using a scheme detailed previously (Mo et al. (2017) Nat. Methods 14 (4): 427-434). […]

[1] = lipid at 10% in POPE/POPC bilayer
[2] = lipid at 10% in POPE/POPC bilayer vs baseline

mean current of pores (GSDMD pores; [1]) [pA]	time to observe GSDMD protein-membrane interaction, in words (GSDMD pores)	Molecule	dwell time (open duration) of pores (GSDMD pores; [2])	single pore activity / pore dynamics profile (GSDMD pores)	pore opening/closing dynamics (automated flare quantification) (Hela cells)	also measured
20	significantly shortened	phosphatidylinositol 4,5-bisphosphate [PIP2]	similarly distributed; also recorded: similar			time to observe protein-membrane interaction (GSDMD pores; [1]): 2.4 ± 0.5 min; effect on open probability of pores (GSDMD pores; [2]): did not affect the open probability; increase in open/close events (GSDMD pores; [2]): 57 fold
		cardiolipin [cardiolipin (CL)]		supported a pore dynamics profile similar to that of PIP2		
20.5	remained as rapid as with PIP2	phosphatidylinositol triphosphate [PIP3]	significantly shorter-lived; also recorded: apparently short dwell time	kept GSDMD pores predominantly in the open state		time to observe GSDMD protein-membrane interaction, in words (GSDMD pores; listed as PI(3,4,5)P3 (PIP3)): significantly shortened
		diacylglycerol [DAG]		no single pore activity was detected		
		m1: PhoDer mutant K51Q/R53Q/K55Q (SEQ ID NO:34) (protein) MGSAFERVVRRVVQELDHGGEFIPVTSLQSSTGFQPYCLVVRKPSSSWFWQPQYQCVNLSIKDILEPDAAEPDVQRGRSFHFYDAMDGQIQGSVELAAPGQAKIAGGAAVSDSSSTSMNVYSLSVDPNTWQTLLHERHLRQPEHKVLQQLRSRGDNVYVVTEVLQTQKEVEVTRTHKREGSGRFSLPGATCLQGEGQGHLSQKKTVTIPSGSTLAFRVAQLVIDSDLDVLLFPDKKQRTFQPPATGHKRSTSEGAWPQLPSGLSMMRCLHNGGGSVIPDYFKQSFPEGYSWERSMTYEDGGICIATNDITMEGDSFINKIHFKGTNFPPNGPVMQKRTVGWEASTEKMYERDGVLKGDVKMKLLLKGGGHYRCDYRTTYKVKQKPVKLPDYHFVDHRIEILSHDKDYNKVKLYEHAVARNSTDSMDELYKGGSGGMVSKGEETITSVIKPDMKNKLRMEGNVNGHAFVIEGEGSGKPFEGIQTIDLEVKEGAPLPFAYDILTTAFHYGNRVFTKYPRGGGVPAEGAFTEDFQGLRAEVETISKELELLDRELCQLLLEGLEGVLRDQLALRALEEALEQGQSLGPVEPLDGPAGAVLECLVLSSGMLVPELAIPVVYLLGALTMLSETQHKLLAEALESQTLLGPLELVGSLLEQSAPWQERSTMSLPPGLLGNSWGEGAPAWVLLDECGLELGEDTPHVCWEPQAQGRMCALYASLALLSGLSQEPH			significantly reduced pore opening/closing dynamics; also recorded: significant changes in pore activity	
		m2: PhoDer mutant K51E/R53E/K55E (SEQ ID NO:35) (protein) MGSAFERVVRRVVQELDHGGEFIPVTSLQSSTGFQPYCLVVRKPSSSWFWEPEYECVNLSIKDILEPDAAEPDVQRGRSFHFYDAMDGQIQGSVELAAPGQAKIAGGAAVSDSSSTSMNVYSLSVDPNTWQTLLHERHLRQPEHKVLQQLRSRGDNVYVVTEVLQTQKEVEVTRTHKREGSGRFSLPGATCLQGEGQGHLSQKKTVTIPSGSTLAFRVAQLVIDSDLDVLLFPDKKQRTFQPPATGHKRSTSEGAWPQLPSGLSMMRCLHNGGGSVIPDYFKQSFPEGYSWERSMTYEDGGICIATNDITMEGDSFINKIHFKGTNFPPNGPVMQKRTVGWEASTEKMYERDGVLKGDVKMKLLLKGGGHYRCDYRTTYKVKQKPVKLPDYHFVDHRIEILSHDKDYNKVKLYEHAVARNSTDSMDELYKGGSGGMVSKGEETITSVIKPDMKNKLRMEGNVNGHAFVIEGEGSGKPFEGIQTIDLEVKEGAPLPFAYDILTTAFHYGNRVFTKYPRGGGVPAEGAFTEDFQGLRAEVETISKELELLDRELCQLLLEGLEGVLRDQLALRALEEALEQGQSLGPVEPLDGPAGAVLECLVLSSGMLVPELAIPVVYLLGALTMLSETQHKLLAEALESQTLLGPLELVGSLLEQSAPWQERSTMSLPPGLLGNSWGEGAPAWVLLDECGLELGEDTPHVCWEPQAQGRMCALYASLALLSGLSQEPH			significantly reduced pore opening/closing dynamics; also recorded: significant changes in pore activity	
